Test results as given in patent US7087227B2, “Cartilage composites and methods of use” (Barnes-Jewish Hospital, priority 1997, dated 2006).

Tests used:
Assay type in all cases: cell-based, human
neocartilage [1] = experiment: Cytokine-induced resorption of neocartilage (matrix content, gross and histological appearance); settings: day 28 tissue stimulated for additional 36 days
neocartilage [2] = experiment: as above
Protocol: It is seen that chronic IL-1 stimulation alters cartilage staining for proteoglycan and collagen. • Day 60 neocartilages were treated with 1 ng/ml rhIL-1β for 30 days. Fresh media and cytokine were added every 48 hours. • Neocartilages were harvested (day 90) and stained with safranin-O and pentachrome as before. […] Magnification×100.
Neocartilage cultures were established in 24 or 48 well plastic dishes (Corning) as described above (Example 1) and grown to day 30. The hyaline cartilage matrix was then stimulated to undergo autolytic degradation following 30 day activation with increasing concentrations of a variety of cytokine and/or inflammatory agents, including IL-1, Il-6, IL-17, TNF-α, LPS, and phorbol ester. Culture media were collected every 48 hours and subsequently changed by the addition of fresh media±inflammatory stimuli.
Cultures were terminated and the biochemical composition of the neocartilage matrix that remained was analyzed as described previously. Parallel samples were processed for light and transmission electron microscopy for histological evaluation of extracellular matrix components.

Fetal chondrocytes = experiment: Effect of heparin on neocartilage formation; settings: day 10–28
Protocol: Day 10 neocartilage was treated with increasing amounts of heparin for 18 days. Fresh media, containing heparin and ascorbate were added every 72–96 hrs. Media were collected and frozen for future analysis. Cultures were harvested on day 28 and the S-GAG content (FIG. 18A) and OH-proline content (FIG. 18B) of the resultant neocartilage assayed as described hereinbelow.
Fetal chondrocytes were grown as described above and subdivided into three groups on day 10 to investigate the effect of heparin on neocartilage formation. In low doses, heparin is known to increase the activity of certain growth factors, for example the fibroblast growth factor (FGF) family of related proteins, by acting as a co-factor, whereas greater amounts of heparin will strip away certain growth factors from the extracellular matrix and thereby impede tissue repair.
Sterile heparin was added to the media at a final concentration of […] for the duration of the culture period (i.e. from day 10–28). Media were exchanged every 3–4 days and recovered for electrophoretic analysis of secreted proteins. Cell layers were removed and the S-GAG (FIG. 18A), hydroxy proline (FIG. 18B), and DNA content quantitated as before (FIG. 18).

[3] = tested on: matrix metalloproteinases (MMPs); experiment: Zymogram and Western analysis of chondrocyte-derived metalloproteinases in spent media; settings: substrate gels
Protocol: FIG. 10, in two parts, FIGS. 10A and 10B, represent SDS-substrate gel (zymogram) analysis of cytokine-mediated production of matrix metalloproteinases (MMPs) in fetal articular chondrocytes (neocartilage disks). Negative staining indicates the molecular weight (MW) in kDa of the active proteases. • Spent media were collected 72 h post stimulation with the indicated cytokine (5 ng/ml) and concentrated 16-fold by dialysis/lyophilization. • Unreduced samples were separated on 10% SDS substrate gels containing either gelatin (FIG. 10A) or casein (FIG. 10B) 0.1%. • MMPs were renatured following SDS removal by extensive washing in 2.5% Triton X-100 and lytic bands visualized via negative staining with Coomassie blue, following incubation in a calcium and zinc containing buffer for 4 hr at 37° C. • Latent enzyme activity is shown in lanes 1–4, while the corresponding active enzymes were prepared by preincubation with 1 mM 4-aminophenyl mercuric acetate (APMA lanes 5–8).
Conditioned media were thawed and identification of chondrocyte-derived metalloproteinases assessed by zymogen substrate gel electrophoresis, as well as Western analysis following SDS-PAGE. Further studies examined the effect of activating agents on synthesis of S-GAG and collagen via radiolabeled incorporation.

[4] = cytokine 1.0 (ng/ml), chronic treatment
[5] = cytokine 5.0 (ng/ml), chronic treatment

Q: Which results are given for “IL-1β: cytokine used to stimulate resorption of neocartilage”?
A: gross appearance of neocartilage on removal from plastic surface (neocartilage [1]): retracted considerably upon removal from the plastic surface; OH-proline content of tissue (neocartilage [2]; cytokine 0.1 ng/ml, chronic treatment): 572 ± 105 pmol; OH-proline content of tissue (neocartilage [2]; [4]): 541 ± 16 pmol; OH-proline content of tissue (neocartilage [2]; [5]): 501 ± 48 pmol; OH-proline content of tissue (neocartilage [2]; cytokine + 50 mU plasminogen, cytokine concentration not printed on the line): 460 ± 16 pmol; thickness of the synthesized matrix (neocartilage [2]; day 60 neocartilage, 1 ng/ml for 30 days): significant reduction in the thickness of the synthesized matrix; safranin-O and pentachrome staining intensity (neocartilage [2]; day 60 neocartilage, 1 ng/ml for 30 days, versus untreated controls): Staining intensity is markedly reduced

Q: How did the “gross appearance of neocartilage on removal from plastic surface” value (neocartilage [1]) turn out when TNF-α was run?
A: The value was “retracted considerably upon removal from the plastic surface”.

Q: And the “OH-proline content of tissue” value (neocartilage [2]; [4])?
A: The value was 403 pmol.

Q: What about the “OH-proline content of tissue” value (neocartilage [2]; [5]) of the same molecule?
A: Its value is 355 pmol.

Q: Which results are given for heparin?
A: defect in matrix deposition (Fetal chondrocytes; 2 μg/ml): much less severe; inhibition in OH-proline (matrix deposition) (Fetal chondrocytes; highest concentration of heparin (20 μg)): 33%

Q: With CCCCCCCCCCCCCC(=O)O[C@@H]1[C@@H](C)[C@@]2(O)[C@@H](C=C(CO)C[C@]3(O)C(=O)C(C)=C[C@@H]23)[C@@H]2C(C)(C)[C@]12OC(C)=O [Phorbol ester] as the molecule, how does the metalloproteinase synthesis induced [3] read?
A: Its metalloproteinase synthesis induced is “specifically induced synthesis of gelatinase B”.

B1: plasminogen: added to enhance the activation of latent MMPs via the plasminogen activator/plasmin cascade (protein, UniProt P00747 20-810, looked up)
Plasminogen: EPLDDYVNTQGASLFSVTKKQLGAGSIEECAAKCEEDEEFTCRAFQYHSKEQQCVIMAENRKSSIIIRMRDVVLFEKKVYLSECKTGNGKNYRGTMSKTKNGITCQKWSSTSPHRPRFSPATHPSEGLEENYCRNPDNDPQGPWCYTTDPEKRYDYCDILECEEECMHCSGENYDGKISKTMSGLECQAWDSQSPHAHGYIPSKFPNKNLKKNYCRNPDRELRPWCFTTDPNKRWELCDIPRCTTPPPSSGPTYQCLKGTGENYRGNVAVTVSGHTCQHWSAQTPHTHNRTPENFPCKNLDENYCRNPDGKRAPWCHTTNSQVRWEYCKIPSCDSSPVSTEQLAPTAPPELTPVVQDCYHGDGQSYRGTSSTTTTGKKCQSWSSMTPHRHQKTPENYPNAGLTMNYCRNPDADKGPWCFTTDPSVRWEYCNLKKCSGTEASVVAPPPVVLLPDVETPSEEDCMFGNGKGYRGKRATTVTGTPCQDWAAQEPHRHSIFTPETNPRAGLEKNYCRNPDGDVGGPWCYTTNPRKLYDYCDVPQCAAPSFDCGKPQVEPKKCPGRVVGGCVAHPHSWPWQVSLRTRFGMHFCGGTLISPEWVLTAAHCLEKSPRPSSYKVILGAHQEVNLEPHVQEIEVSRLFLEPTRKDIALLKLSSPAVITDKVIPACLPSPNYVVADRTECFITGWGETQGTFGAGLLKEAQLPVIENKVCNRYEFLNGRVQSTELCAGHLAGGTDSCQGDSGGPLVCFEKDKYILQGVTSWGLGCARPNKPGVYVRVSRFVTWIEGVMRNN
Q: Which “OH-proline content of tissue” value (neocartilage [2]; 50 mU plasminogen alone, no cytokine, chronic treatment) does the source give for B1 here?
A: Its value is 1648 ± 72 pmol.
